Data: ChEMBL document CHEMBL3525902, “In vitro metabolism of oxymetazoline: evidence for bioactivation to a reactive metabolite” (Drug Metab Dispos, 2011)

Columns and labels:
[1] = molecular target: T1, Cytochrome P450 2C19 (Homo sapiens, UniProt P33261); assay: Activity of human recombinant CYP2C19 assessed as (S)-2-amino-5-((R)-3-(5-tert-butyl-2-((4,5-dihydro-1H-imidazol-2-yl)methyl)-4-hydroxy-3-methylbenzylthio)-1-(carboxymethylamino)-1-oxopropan-2-ylamino)-5-oxopentanoic acid formation at 50 uM in presence of NADPH and glutathione by LC-MS/MS method; format: ADME; conditions: recombinant enzyme
T1 sequence (P33261 whole entry): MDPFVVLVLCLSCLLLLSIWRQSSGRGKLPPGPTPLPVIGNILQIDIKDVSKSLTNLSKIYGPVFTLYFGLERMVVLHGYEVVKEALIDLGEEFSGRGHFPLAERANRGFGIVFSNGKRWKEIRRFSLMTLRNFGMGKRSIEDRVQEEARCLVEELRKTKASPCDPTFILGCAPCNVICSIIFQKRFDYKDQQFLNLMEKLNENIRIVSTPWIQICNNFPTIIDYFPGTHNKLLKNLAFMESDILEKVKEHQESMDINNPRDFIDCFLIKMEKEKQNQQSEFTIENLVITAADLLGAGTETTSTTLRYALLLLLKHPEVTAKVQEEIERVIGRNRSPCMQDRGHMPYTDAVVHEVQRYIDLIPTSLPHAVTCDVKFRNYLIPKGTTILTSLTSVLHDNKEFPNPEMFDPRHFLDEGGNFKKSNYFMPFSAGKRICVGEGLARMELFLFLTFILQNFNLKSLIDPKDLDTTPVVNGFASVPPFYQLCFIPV

[2] = molecular target: T2, Cytochrome P450 1A2 (Homo sapiens, UniProt P05177); assay: Activity of human recombinant CYP1A2 assessed as metabolite formation at 50 uM in presence of NADPH by LC-MS/MS method; format: ADME; conditions: recombinant enzyme
T2 sequence (P05177 whole entry): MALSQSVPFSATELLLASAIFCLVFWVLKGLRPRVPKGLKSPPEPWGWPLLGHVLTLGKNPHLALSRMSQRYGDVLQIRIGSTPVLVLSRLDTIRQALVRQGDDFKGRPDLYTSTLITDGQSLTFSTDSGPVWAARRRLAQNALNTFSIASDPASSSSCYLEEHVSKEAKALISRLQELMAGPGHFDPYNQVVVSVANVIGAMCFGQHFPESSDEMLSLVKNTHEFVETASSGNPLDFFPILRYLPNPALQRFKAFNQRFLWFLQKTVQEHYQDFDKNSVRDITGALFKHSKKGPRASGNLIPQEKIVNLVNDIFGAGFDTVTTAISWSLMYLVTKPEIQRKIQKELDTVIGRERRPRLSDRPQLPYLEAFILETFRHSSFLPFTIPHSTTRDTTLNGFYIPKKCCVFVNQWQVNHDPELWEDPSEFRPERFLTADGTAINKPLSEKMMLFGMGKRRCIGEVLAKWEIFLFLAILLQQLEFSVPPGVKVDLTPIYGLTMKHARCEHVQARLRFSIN

[3] = molecular target: T3, Cytochrome P450 2C8 (Homo sapiens, UniProt P10632); assay: Activity of human recombinant CYP2C8 assessed as metabolite formation at 50 uM in presence of NADPH by LC-MS/MS method; format: ADME; conditions: recombinant enzyme
T3 sequence (P10632 whole entry): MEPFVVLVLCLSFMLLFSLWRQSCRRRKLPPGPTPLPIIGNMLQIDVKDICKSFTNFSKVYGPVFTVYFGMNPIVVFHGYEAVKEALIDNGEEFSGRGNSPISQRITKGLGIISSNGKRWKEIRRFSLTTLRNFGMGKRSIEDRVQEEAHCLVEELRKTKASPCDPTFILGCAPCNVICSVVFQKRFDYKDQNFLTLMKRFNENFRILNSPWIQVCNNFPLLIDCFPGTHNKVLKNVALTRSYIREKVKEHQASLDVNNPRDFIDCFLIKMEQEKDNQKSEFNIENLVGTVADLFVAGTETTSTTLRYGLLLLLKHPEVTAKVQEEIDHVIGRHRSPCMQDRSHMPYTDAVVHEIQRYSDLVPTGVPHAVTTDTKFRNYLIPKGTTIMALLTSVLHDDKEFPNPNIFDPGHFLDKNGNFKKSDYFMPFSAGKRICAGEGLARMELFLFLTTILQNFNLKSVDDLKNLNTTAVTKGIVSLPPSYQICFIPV

[4] = molecular target: Cytochrome P450 3A4 (Homo sapiens, UniProt P08684); assay: Activity of human recombinant CYP3A4 assessed as metabolite formation at 50 uM in presence of NADPH by LC-MS/MS method; format: ADME; conditions: recombinant enzyme
Sequence of Cytochrome P450 3A4 (P08684 whole entry): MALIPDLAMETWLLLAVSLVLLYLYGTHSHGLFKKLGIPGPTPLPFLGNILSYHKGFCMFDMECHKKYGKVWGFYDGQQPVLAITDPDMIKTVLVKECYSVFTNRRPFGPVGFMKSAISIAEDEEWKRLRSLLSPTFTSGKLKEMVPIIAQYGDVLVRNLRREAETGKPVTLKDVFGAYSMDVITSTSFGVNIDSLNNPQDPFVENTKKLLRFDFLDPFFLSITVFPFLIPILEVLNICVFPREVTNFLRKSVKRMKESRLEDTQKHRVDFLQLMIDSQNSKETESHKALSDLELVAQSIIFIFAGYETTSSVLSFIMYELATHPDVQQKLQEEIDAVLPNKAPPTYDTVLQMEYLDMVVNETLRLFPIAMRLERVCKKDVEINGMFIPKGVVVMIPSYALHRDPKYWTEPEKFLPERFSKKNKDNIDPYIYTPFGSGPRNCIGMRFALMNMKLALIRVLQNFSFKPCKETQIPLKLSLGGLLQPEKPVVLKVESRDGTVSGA

[5] = Drug metabolism in NADPH supplemented rat liver S9 fraction assessed as 3-((4,5-dihydro-1H-imidazol-2-yl)methyl)-6-(1-hydroxy-2-methylpropan-2-yl)-2,4-dimethylphenol formation at 50 uM in presence of glutathione by LC-MS/MS method; format: ADME, subcellular; conditions: s9, 50 µM
[6] = Drug metabolism in NADPH supplemented rabbit liver S9 fraction assessed as 3-((4,5-dihydro-1H-imidazol-2-yl)methyl)-6-(1-hydroxy-2-methylpropan-2-yl)-2,4-dimethylphenol formation at 50 uM in presence of glutathione by LC-MS/MS method; format: ADME, subcellular, Oryctolagus cuniculus; conditions: s9, 50 µM
[7] = Drug metabolism in NADPH supplemented rabbit liver S9 fraction assessed as 3-((1H-imidazol-2-yl)methyl)-6-tert-butyl-2,4-dimethylphenol formation at 50 uM in presence of N-acetyl cysteine by LC-MS/MS method; format: ADME, subcellular, Oryctolagus cuniculus; conditions: s9, 50 µM
[8] = Drug metabolism in NADPH supplemented rabbit liver microsomes fraction assessed as 3-((4,5-dihydro-1H-imidazol-2-yl)methyl)-6-(1-hydroxy-2-methylpropan-2-yl)-2,4-dimethylphenol formation at 50 uM after 1 hr by LC-MS/MS method; format: ADME, Oryctolagus cuniculus
[9] = Drug metabolism in NADPH supplemented rabbit liver microsomes fraction assessed as 3-((1H-imidazol-2-yl)methyl)-6-tert-butyl-2,4-dimethylphenol formation at 50 uM after 1 hr by LC-MS/MS method; format: ADME, Oryctolagus cuniculus
[10] = tested on: Liver microsome; assay: Drug metabolism in NADPH supplemented rat liver microsomes fraction assessed as 3-((1H-imidazol-2-yl)methyl)-6-tert-butyl-2,4-dimethylphenol formation at 50 uM after 1 hr by LC-MS/MS method; format: ADME
[11] = tested on: Liver microsome; assay: Drug metabolism in NADPH supplemented rat liver microsomes fraction assessed as 3-((1H-imidazol-2-yl)methyl)-6-(1-hydroxy-2-methylpropan-2-yl)-2,4-dimethylphenol formation at 50 uM after 1 hr by LC-MS/MS method; format: ADME
[12] = tested on: Liver microsome; assay: Drug metabolism in NADPH supplemented human liver microsomes fraction assessed as 3-((4,5-dihydro-1H-imidazol-2-yl)methyl)-6-(1-hydroxy-2-methylpropan-2-yl)-2,4-dimethylphenol formation at 50 uM after 1 hr by LC-MS/MS method; format: ADME
[13] = tested on: Liver microsome; assay: Drug metabolism in NADPH supplemented human liver microsomes fraction assessed as 3-((1H-imidazol-2-yl)methyl)-6-tert-butyl-2,4-dimethylphenol formation at 50 uM after 1 hr by LC-MS/MS method; format: ADME
[14] = tested on: Liver microsome; assay: Drug metabolism in NADPH supplemented human liver microsomes fraction assessed as 3-((1H-imidazol-2-yl)methyl)-6-(1-hydroxy-2-methylpropan-2-yl)-2,4-dimethylphenol formation at 50 uM after 1 hr by LC-MS/MS method; format: ADME
[15] = Drug metabolism in NADPH supplemented human liver S9 fraction assessed as 3-((4,5-dihydro-1H-imidazol-2-yl)methyl)-6-(1-hydroxy-2-methylpropan-2-yl)-2,4-dimethylphenol formation at 50 uM in presence of glutathione by LC-MS/MS method; format: ADME, subcellular; conditions: s9, 50 µM
[16] = Retention time of the compound at 50 uM by LC-MS/MS method; format: physicochemical
[17] = Drug level in NADPH supplemented rabbit liver S9 fraction treated with 50 uM oxymetazoline assessed as compound-N-acetyl cysteine conjugate formation in presence of N-acetyl cysteine by LC-MS/MS method; format: ADME, subcellular, Oryctolagus cuniculus
[18] = molecular target: T1, Cytochrome P450 2C19; assay: Activity of human recombinant CYP2C19 assessed as 3-((4,5-dihydro-1H-imidazol-2-yl)methyl)-6-(1-hydroxy-2-methylpropan-2-yl)-2,4-dimethylphenol formation at 50 uM in presence of NADPH by LC-MS/MS method; format: ADME; conditions: recombinant enzyme
[19] = molecular target: T1, Cytochrome P450 2C19; assay: Activity of human recombinant CYP2C19 assessed as 3-((1H-imidazol-2-yl)methyl)-6-tert-butyl-2,4-dimethylphenol formation at 50 uM in presence of NADPH by LC-MS/MS method; format: ADME; conditions: recombinant enzyme

Structure (SMILES): Cc1cc(C(C)(C)C)c(O)c(C)c1CC1=NCCN1 [OXYMETAZOLINE]
- Drug metabolism [1]: metabolite_detected
- Drug metabolism [2]: metabolite_not_detected
- Drug metabolism [3]: metabolite_not_detected
- Drug metabolism [4]: metabolite_not_detected
- Drug metabolism [5]: metabolite_detected
- Drug metabolism [6]: metabolite_detected
- Drug metabolism [7]: metabolite_detected
- Drug metabolism [8]: metabolite_detected
- Drug metabolism [9]: metabolite_detected
- Drug metabolism [10]: metabolite_detected
- Drug metabolism [11]: metabolite_detected
- Drug metabolism [12]: metabolite_detected
- Drug metabolism [13]: metabolite_detected
- Drug metabolism [14]: metabolite_detected
- Drug metabolism [15]: metabolite_detected
- Retention_time [16]: 12.2 min
- Drug metabolism [17]: metabolite_detected
- Drug metabolism [18]: metabolite_detected
- Drug metabolism [19]: metabolite_detected
